N=C(N)NC(N)=S
solubility (mole fraction)
Conditions | 283.15 K | 288.15 K | 293.15 K | 298.15 K | 303.15 K | 308.15 K | 313.15 K | 318.15 K | 323.15 K
in 1,4-dioxane | – | 0.00901 | 0.0107 | 0.0127 | 0.0151 | 0.0178 | 0.0208 | 0.0241 | 0.028
in NMP | 0.0139 | 0.0166 | 0.0195 | 0.0236 | 0.0281 | 0.0329 | 0.0389 | 0.0455 | 0.0532
in acetone | 0.0103 | 0.0123 | 0.0145 | 0.0175 | 0.0203 | 0.0241 | 0.028 | 0.0324 | 0.0371
in acetonitrile | 0.00365 | 0.00428 | 0.00504 | 0.00591 | 0.00688 | 0.008 | 0.00927 | 0.0105 | 0.0121
in cyclohexane | 3.6e-05 | 4.3e-05 | 5e-05 | 6e-05 | 7e-05 | 8.4e-05 | 9.9e-05 | 0.000118 | 0.00014
in ethanol | 0.0045 | 0.00521 | 0.00605 | 0.00706 | 0.00817 | 0.00933 | 0.0106 | 0.0122 | 0.014
in ethyl acetate | 0.00196 | 0.00245 | 0.00314 | 0.00391 | 0.00471 | 0.00569 | 0.00679 | 0.00797 | 0.0094
in isopropanol | 0.00124 | 0.00167 | 0.00223 | 0.00286 | 0.00363 | 0.00456 | 0.00559 | 0.0069 | 0.00854
in methanol | 0.00558 | 0.00635 | 0.00744 | 0.0089 | 0.0105 | 0.0123 | 0.0143 | 0.0165 | 0.0192
in n-butanol | 0.000477 | 0.000749 | 0.00111 | 0.00162 | 0.00226 | 0.00314 | 0.00432 | 0.00575 | 0.0076
in n-propanol | 0.00271 | 0.00326 | 0.00393 | 0.00468 | 0.00564 | 0.00676 | 0.00782 | 0.00901 | 0.0104
in toluene | 0.000126 | 0.000137 | 0.000149 | 0.00016 | 0.000174 | 0.000189 | 0.000206 | 0.000223 | 0.000243

Source: BigSolDB 2.1
